# Assay: Inhibition of sweet almond beta-glucosidase after 10 mins using 4-nitrophenylbeta-D-glucopyranoside as a substrate by Lineweaver-Burk and double reciprocal analysis
# Parameters: species or system Prunus dulcis
row,SMILES,Ki [nM]
1,OC[C@@H]1[C@@H](O)[C@H](O)[C@@H](O)c2nc(CCc3ccc(C4CCCCC4)cc3)cn21,56.1
2,OC[C@@H]1[C@@H](O)[C@H](O)[C@@H](O)c2nc(CCc3ccc(-c4ccccc4)cc3)cn21,24.5
3,O=C(CCc1cn2c(n1)[C@H](O)[C@@H](O)[C@H](O)[C@H]2CO)Nc1ccccc1,6.8
4,OC[C@@H]1[C@@H](O)[C@H](O)[C@@H](O)c2nccn21,100

# Second part, the compound after the results:
row,Ki [nM],SMILES
1,3.2,OC[C@@H]1[C@@H](O)[C@H](O)[C@@H](O)c2nc(CCc3ccc(F)cc3)cn21
2,10.7,CCCCCCCCc1cn2c(n1)[C@H](O)[C@@H](O)[C@H](O)[C@H]2CO
3,0.58,Cc1ccc(CCc2cn3c(n2)[C@H](O)[C@@H](O)[C@H](O)[C@H]3CO)cc1
4,1.9,OC[C@@H]1[C@@H](O)[C@H](O)[C@@H](O)c2nc(CCc3ccccc3)cn21
5,2,COc1ccc(CCc2cn3c(n2)[C@H](O)[C@@H](O)[C@H](O)[C@H]3CO)cc1
6,0.64,CC(C)(C)CCc1cn2c(n1)[C@H](O)[C@@H](O)[C@H](O)[C@H]2CO
7,3.5,CC(C)(CCc1cn2c(n1)[C@H](O)[C@@H](O)[C@H](O)[C@H]2CO)C(=O)Nc1ccccc1
